Experimental findings from PubChem BioAssay (NCI) are described below.

Values joined by “and” are separate entries in the source; they are usually repeats but may differ in a detail not shown here. Equal values may be shown once.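 Interpolation was linear, between the two tested concentrations surrounding the appropriate level; five concentrations were tested over 48 hours in 96-well plates. The concentration for 50% growth inhibition is given as GI50. TGI: concentration producing complete growth inhibition.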

The first assay relates to KM12 colon. Kind of assay: growth of human tumour cells (NCI), 48 h.
Take `CCOC(=O)C1(C/C=C/CBr)Cc2ccccc2C1=O` (configuration not stated): the TGI came to 10.8 µM.

Molecule `COc1ccc(-c2c(C#N)c(-c3ccc(C)cc3)n(NS(=O)(=O)c3ccc(C)cc3)c(=O)c2C#N)cc1` registered a TGI above 100 µM.

On to `COc1ccc(COCCOCc2nc(C#N)c(N)o2)cc1`, for which the TGI is above 100 µM.

As for `Cc1c(O)c(O)cc[n+]1C1OC(CO)C(O)C1O` (configuration not stated), the TGI was above 100 µM.

The next assay concerns NCI-H226 lung. Description: growth of human tumour cells (NCI), 48 h.
Turning to `CC(C)(C)OC(=O)N[C@H]1CCN(C2CCCCC2)C1=O`, the TGI was above 100 µM.

Molecule `CC(=O)NC(Cc1ccc(O)cc1)C(=O)O` (configuration not stated) had a TGI above 100 µM.

For `O=C(NC(=O)c1ccccc1[N+](=O)[O-])Nc1ccc(Oc2ncc(Br)cn2)c(Cl)c1`, the GI50 was below 0.0175 µM; the TGI was 0.0292 µM and < 0.0313 µM.

Turning to `CC[C@@H]1CC[C@@H]2[C@H](CC[C@]3(C)[C@@H](OC(C)=O)CC[C@@H]23)[C@H]1COC(C)=O`, the TGI turned out to be 52.5 µM.

The molecule `CC(=O)O[C@@H]1[C@H](C(C)C)[C@@H](OC(C)=O)C/C(C)=C/CC[C@]2(C)O[C@@H]12` gave a TGI above 100 µM.

As for `CC(C)=CCc1c2c(c3occ(-c4ccc(O)cc4)c(=O)c3c1O)CC(C(C)(C)O)O2` (configuration not stated), the TGI was 43 µM.

In turn, `Nc1nc(Cl)cc(NCC2(CO)CC(=O)C2)n1` yielded a TGI above 100 µM.

Molecule `O=C(N/N=C(/COc1ccc(Cl)cc1)N=Cc1ccncc1)c1ccncc1` yielded a TGI above 100 µM.

`C1CN(c2nc3c(nnc4nc(N5CCOCC5)sc43)s2)CCO1` registered a TGI above 100 µM.

Regarding `COc1cc2nc3n(c(=O)c2cc1OC)-c1ccc([N+](=O)[O-])cc1C3=O`, the TGI is above 100 µM.

Regarding `c1ccc(N=c2sc3ccccc3nc2Nc2ccccc2)cc1`, the TGI was above 100 µM.

In the case of `CCC(C(=O)O)c1ccc(OC)cc1` (configuration not stated), the TGI is above 100 µM.

Molecule `COCO[C@@H]1C[C@H]2C(=O)Nc3ccccc3C(=O)N2C1` gave a TGI above 100 µM.

As to `CC(C)CCS(=O)(=O)OCCCCOS(=O)(=O)CCC(C)C`, the TGI was above 100 µM.

On to `CCCCC#C[I+]c1ccccc1`, for which the TGI stood at 30.7 µM.

The molecule `O=[N+]([O-])c1ccc2c(c1)c(OCc1ccccc1)nn2Cc1ccccc1` gave a TGI above 100 µM.

In turn, `O=C1CCCc2cc3c(cc21)CC1(Cc2ccccc2C1)C3` registered a TGI of 12.8 µM.

In the case of `O=C1/C(=C/c2ccccc2)N=C2Sc3c(nc[nH]c3=O)N12`, the TGI was above 100 µM.

On to `CCOC(=O)c1cn2c(n1)sc1cccc(C)c12`, for which the TGI was above 100 µM.

Regarding `COc1ccc(-c2c(C#N)c(-c3ccc(C)cc3)n(NS(=O)(=O)c3ccc(C)cc3)c(=O)c2C#N)cc1`, the TGI was above 100 µM.

On to `COc1ccc(COCCOCc2nc(C#N)c(N)o2)cc1`, for which the TGI is above 100 µM.

Molecule `Cc1c(O)c(O)cc[n+]1C1OC(CO)C(O)C1O` (configuration not stated) came in with a TGI above 100 µM.

In a further assay the test system is IGROV1 ovarian. Kind of assay: growth of human tumour cells (NCI), 48 h.
`CC(C)(C)OC(=O)N[C@H]1CCN(C2CCCCC2)C1=O` registered a TGI above 100 µM.

For the molecule `CC(=O)NC(Cc1ccc(O)cc1)C(=O)O` (configuration not stated), the TGI was above 100 µM.

Molecule `CC[C@@H]1CC[C@@H]2[C@H](CC[C@]3(C)[C@@H](OC(C)=O)CC[C@@H]23)[C@H]1COC(C)=O` displayed a TGI above 100 µM.

`CC(=O)O[C@@H]1[C@H](C(C)C)[C@@H](OC(C)=O)C/C(C)=C/CC[C@]2(C)O[C@@H]12` came in with a TGI above 100 µM.

Turning to `C[C@@H]1CC[C@]2(C(=O)O)CC[C@]3(C)C(=CC[C@@H]4[C@@]5(C)CC[C@H](O)C(C)(C)[C@@H]5CC[C@]43C)[C@@H]2[C@]1(C)O`, the TGI is 30.7 µM.

`CC(C)=CCc1c2c(c3occ(-c4ccc(O)cc4)c(=O)c3c1O)CC(C(C)(C)O)O2` (configuration not stated) came in with a TGI of 12 µM.

With `Nc1nc(Cl)cc(NCC2(CO)CC(=O)C2)n1`, the TGI was above 100 µM.

On to `O=C(N/N=C(/COc1ccc(Cl)cc1)N=Cc1ccncc1)c1ccncc1`, for which the TGI was above 100 µM.

Turning to `C1CN(c2nc3c(nnc4nc(N5CCOCC5)sc43)s2)CCO1`, the TGI is above 100 µM.

The molecule `COc1cc2nc3n(c(=O)c2cc1OC)-c1ccc([N+](=O)[O-])cc1C3=O` gave a TGI above 100 µM.

With `c1ccc(N=c2sc3ccccc3nc2Nc2ccccc2)cc1`, the TGI was above 100 µM.

Consider `CCC(C(=O)O)c1ccc(OC)cc1` (configuration not stated), for which the TGI is above 100 µM.

`COCO[C@@H]1C[C@H]2C(=O)Nc3ccccc3C(=O)N2C1` had a TGI above 100 µM.

Take `CC(C)CCS(=O)(=O)OCCCCOS(=O)(=O)CCC(C)C`: the TGI is above 100 µM.

Regarding `CCCCC#C[I+]c1ccccc1`, the TGI worked out at 36.4 µM.

Consider `O=[N+]([O-])c1ccc2c(c1)c(OCc1ccccc1)nn2Cc1ccccc1`, for which the TGI was above 100 µM.

Turning to `O=C1CCCc2cc3c(cc21)CC1(Cc2ccccc2C1)C3`, the TGI is above 100 µM.

For `O=C1/C(=C/c2ccccc2)N=C2Sc3c(nc[nH]c3=O)N12`, the TGI is above 100 µM.

Regarding `CCOC(=O)c1cn2c(n1)sc1cccc(C)c12`, the TGI was above 100 µM.

As to `CCOC(=O)C1(C/C=C/CBr)Cc2ccccc2C1=O` (configuration not stated), the TGI was 10.3 µM.

As to `COc1ccc(-c2c(C#N)c(-c3ccc(C)cc3)n(NS(=O)(=O)c3ccc(C)cc3)c(=O)c2C#N)cc1`, the TGI was above 100 µM.

`COc1ccc(COCCOCc2nc(C#N)c(N)o2)cc1` came in with a TGI above 100 µM.

As to `Cc1c(O)c(O)cc[n+]1C1OC(CO)C(O)C1O` (configuration not stated), the TGI is above 100 µM.

The subject of the next assay is HL-60(TB) leukemia. Description: growth of human tumour cells (NCI), 48 h.
`CC(C)(C)OC(=O)N[C@H]1CCN(C2CCCCC2)C1=O` yielded a TGI above 100 µM.

In turn, `CC(=O)NC(Cc1ccc(O)cc1)C(=O)O` (configuration not stated) returned a TGI above 100 µM.

In the case of `O=C(NC(=O)c1ccccc1[N+](=O)[O-])Nc1ccc(Oc2ncc(Br)cn2)c(Cl)c1`, the GI50 was 0.0273 µM; the TGI is 0.0336 µM and 0.0807 µM.

As to `CC[C@@H]1CC[C@@H]2[C@H](CC[C@]3(C)[C@@H](OC(C)=O)CC[C@@H]23)[C@H]1COC(C)=O`, the TGI amounted to 39.2 µM.

In turn, `CC(=O)O[C@@H]1[C@H](C(C)C)[C@@H](OC(C)=O)C/C(C)=C/CC[C@]2(C)O[C@@H]12` yielded a TGI above 100 µM.

Molecule `C[C@@H]1CC[C@]2(C(=O)O)CC[C@]3(C)C(=CC[C@@H]4[C@@]5(C)CC[C@H](O)C(C)(C)[C@@H]5CC[C@]43C)[C@@H]2[C@]1(C)O` returned a TGI of 19.8 µM.

Turning to `CC(C)=CCc1c2c(c3occ(-c4ccc(O)cc4)c(=O)c3c1O)CC(C(C)(C)O)O2` (configuration not stated), the TGI is 34.4 µM.

`Nc1nc(Cl)cc(NCC2(CO)CC(=O)C2)n1` showed a TGI above 100 µM.

The molecule `O=C(N/N=C(/COc1ccc(Cl)cc1)N=Cc1ccncc1)c1ccncc1` registered a TGI above 100 µM.

With `C1CN(c2nc3c(nnc4nc(N5CCOCC5)sc43)s2)CCO1`, the TGI was above 100 µM.

In the case of `c1ccc(N=c2sc3ccccc3nc2Nc2ccccc2)cc1`, the TGI is above 100 µM.

`CCC(C(=O)O)c1ccc(OC)cc1` (configuration not stated) yielded a TGI above 100 µM.

Molecule `CC(C)CCS(=O)(=O)OCCCCOS(=O)(=O)CCC(C)C` had a TGI above 100 µM.

For the molecule `CCCCC#C[I+]c1ccccc1`, the TGI was determined as 40.1 µM.

In the case of `O=[N+]([O-])c1ccc2c(c1)c(OCc1ccccc1)nn2Cc1ccccc1`, the TGI was above 100 µM.

On to `O=C1CCCc2cc3c(cc21)CC1(Cc2ccccc2C1)C3`, for which the TGI is 5.02 µM.
